For the assay, the target named is T1, Tma Rex (Thermotoga maritima, UniProt Q9WY16).
T1 construct: gene rex1; Full-length, residues 1-208 (5-207 modelled); homodimer; P-loop residues 89-94 GAGNIG; crystallised with 22-bp TM0201 operator DNA
T1 sequence (Q9WY16 1-208): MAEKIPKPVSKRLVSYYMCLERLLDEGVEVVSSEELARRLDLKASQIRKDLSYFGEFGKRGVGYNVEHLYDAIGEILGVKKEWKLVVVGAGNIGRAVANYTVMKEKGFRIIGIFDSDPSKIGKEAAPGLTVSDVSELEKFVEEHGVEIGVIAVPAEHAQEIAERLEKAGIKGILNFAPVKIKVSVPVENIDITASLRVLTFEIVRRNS
The assay is described as follows: X-ray crystallography, co-crystal structure at […] A. The assay is classed as binding. The settings on record: ternary complex with 22-bp TM0201 operator DNA; 1 mM NAD+ in co-crystallization; pH 6.5, 296 K; one NAD+ per monomer, C-terminal Rossmann domain near dimer interface.

Turning to `NC(=O)c1ccc[n+]([C@@H]2O[C@H](COP(=O)(O)OP(=O)(O)OC[C@H]3O[C@@H](n4cnc5c(N)ncnc54)[C@H](O)[C@@H]3O)[C@@H](O)[C@H]2O)c1` [NAD^+], the “X-ray crystallography, co-crystal structure at 2.40 A” value was “a dimeric Rex protein bound to one molecule of NAD^+ per monomer”.

(Values after paper PMC8836258, “Structural Basis of Redox-Sensing Transcriptional Repressor Rex with Cofactor NAD^+ and Operator DNA” (International Journal of Molecular Sciences, 2022).)
